Where no end group is shown, it is not given here. [ ]: non-standard residue; d: D form. d2Nal = N[C@H](Cc1ccc2ccccc2c1)C(=O)O

This note sets out measurements from US20060258581A1, “Methods and composition for derepressions of IAP-inhibited caspase” (priority 2001, published 2006).

The test system of data set [1] is acute myelogenous leukemia (AML) blasts. Kind of data set: Freshly isolated AML leukemic blasts from patients, annexin-V. Type of data set: cell-based, human. Particulars: 20-24 hours. From the text:
(§1) Since many tumor and leukemia cell lines proliferate faster than normal cells, it was investigated whether the polyphenylurea compounds could induce apoptosis of non-replicating malignant cells. […] Thus, cell replication is not required for sensitivity to the disclosed poly-phenylurea compounds.

Data set [2] concerns NCI panel of 60 tumor cell lines. In words: NCI panel of 60 tumor cell lines, 48 hours, protein-based colorimetric assay. More on the design: species or system human. As for the experimental part: Selected polyphenylurea compounds were tested on the National Cancer Institute (NCI) panel of 60 tumor cell lines (see FIG. 28a and FIG. 29).
The test system of data set [3] is caspase-3 and caspase-7 activity in Jurkat cells. Kind of data set: Caspase-3 and caspase-7 activity in whole Jurkat cells, cell permeable substrate. In kind it is cell-based. As to conditions: 8 μM, 20 hours.
Data set [4] relates to chronic lymphocytic leukemia (CLL) B-cells. In words: Freshly isolated CLL B-cells from patients, annexin-V/propidium iodide. In kind it is cell-based, human. As to conditions: 20-24 hours.
Excerpt: as §1

Data set [5] concerns the target T1, XIAP-inhibited caspase-3 (Homo sapiens, UniProt P98170).
T1 construct: in a caspase derepression assay using full length XIAP; made in house; host or cells: bacteria
Kind of data set: IAP derepression assay: Ac-DEVD-AFC hydrolysis by caspase-3 in the presence of GST-XIAP. Type of data set: biochemical. As for the experimental part:
The ratio of Vmax for hydrolysis of Ac-DEVD-AFC in the presence and absence of the candidate mixture was calculated and used to identify those that contain an agent that derepresses an IAP-inhibited caspase.
Each mixture was aliquoted in a 25 microliter volume and in duplicate to a well of a 96 well microtiter plate. […] Fluorescence of liberated AFC was immediately detected from each well for 30 minutes at 30 second intervals. The Vmax for hydrolysis of AC-DEVD-AFC from each well was measured using the softmax software package.

The subject of data set [6] is Jurkat leukemia cells. Kind of data set: Jurkat leukemia cell death, Annexin V/propidium iodide flow cytometry. In kind it is cell-based. Particulars: Homo sapiens, Jurkat, 20 h, 20 hours, read-out: % nonviable cells. The procedure:
(§2) The following assay was used to test the ability of individual compounds from the TPI 1396 and TPI 1391 libraries to induce apoptosis of cultured tumor cell lines. Each of the compounds listed in Table IX was individually added to Jurkat leukemia cells (6.25×10^5 cells/mL) in RPMI containing 2.5% FBS at various concentrations for 20 hours. After incubation, cells were washed and stained with FITC-conjugated Annexin V antibody and propidium iodide (Biovision; Mountain View, Calif.). Cells were incubated for 20 minutes at room temperature in the dark and fluorescence was measured by flow cytometry (FACScan, Immunocytometry system; Becton-Dickinson; San Jose, Calif.). Cells staining positive for Annexin V were deemed non-viable.
(§3) The TPI I396-34 and TPI 1391-28 compounds were further tested as set forth below.

For data set [7], the target named is full length XIAP (Homo sapiens, UniProt P98170). In words: Potency of IAP antagonists in vitro (Table VIII; caspase derepression / SMAC competition with full length XIAP).
Chain of full length XIAP (P98170 whole entry): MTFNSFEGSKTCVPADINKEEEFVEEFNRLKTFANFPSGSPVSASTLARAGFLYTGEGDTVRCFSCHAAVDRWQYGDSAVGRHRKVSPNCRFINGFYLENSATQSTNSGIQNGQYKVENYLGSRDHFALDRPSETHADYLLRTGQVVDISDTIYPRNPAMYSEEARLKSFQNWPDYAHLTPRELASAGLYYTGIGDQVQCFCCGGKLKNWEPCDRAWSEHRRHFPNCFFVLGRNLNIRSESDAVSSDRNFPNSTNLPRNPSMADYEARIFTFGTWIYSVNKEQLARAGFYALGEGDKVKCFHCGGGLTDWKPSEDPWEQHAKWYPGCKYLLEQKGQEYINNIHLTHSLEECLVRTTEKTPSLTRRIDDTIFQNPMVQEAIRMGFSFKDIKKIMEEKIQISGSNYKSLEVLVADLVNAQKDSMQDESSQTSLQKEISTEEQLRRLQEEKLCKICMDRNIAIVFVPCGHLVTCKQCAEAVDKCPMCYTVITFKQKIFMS
The subject of data set [8] is ALVA31 prostate cancer cells. Kind of data set: ALVA31 prostate cancer cell viability (XTT dye-reduction, trypan blue). In kind it is cell-based. As to conditions: 24 hrs; peptides 40 μM, VP-16 100 μM. As for the experimental part: The in vivo effects of TPI 792-33 or TPI 792-35, either individually or in combination with the cytotoxic anticancer drug VP-16 (etoposide), on derepression of XIAP-inhibited caspase and viability of ALVA31 cells was determined as follows. ALVA31 prostate cancer cells were seeded onto 96 well plates (10^4 cells/well) in 100 μL RPMI containing 2.5% fetal bovine serum (FBS). […] After another 24 hrs-incubation, cell viability was measured by the XTT dye-reduction assay (Roche, Molecular Biochemicals; Indianapolis, Ind.) and trypan blue dye exclusion assay.
Background: Tetrazolium assays rely on reduction of a dye to a coloured formazan, in cell work by metabolically active cells.

Data set [9] relates to mouse embryo fibroblasts (MEFs) from XIAP -/- mice. Kind of data set: Mouse embryo fibroblasts from XIAP -/- and wild type mice, MTT assay. In kind it is cell-based. Particulars: non-transformed versus SV40 large T transformed MEFs. As for the experimental part: Cells were either tested directly at low passage (FIGS. 38A and C) or after transformation by infection with a retrovirus encoding SV40 large T antigen (FIGS. 38B and D). […] Cell viability was measured by MTT assay, expressing data as a percentage relative to control, untreated cells. Data shown in FIG. 38A-D represent mean±standard deviation of triplicate determinations.

The test system of data set [10] is Smac-7 mer/XIAP-BIR2. Kind of data set: Competition assay Smac-7 mer/XIAP-BIR2 IC-50 uM | AVG.
The target in data set [11] is T2, caspase-3 (Homo sapiens, UniProt P42574).
T2 construct: made in house; host or cells: bacteria
T2 sequence (P42574 29-175 limits assumed): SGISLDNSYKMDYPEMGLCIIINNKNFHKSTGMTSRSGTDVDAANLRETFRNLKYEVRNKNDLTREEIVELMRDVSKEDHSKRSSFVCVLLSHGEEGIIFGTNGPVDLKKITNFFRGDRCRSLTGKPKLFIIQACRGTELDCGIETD
T2 sequence (P42574 176-277 limits assumed): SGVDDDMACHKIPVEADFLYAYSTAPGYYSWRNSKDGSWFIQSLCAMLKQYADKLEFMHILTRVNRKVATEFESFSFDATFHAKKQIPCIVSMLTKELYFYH
Kind of data set: Caspase assay without XIAP (candidate mixture and caspase 3 only). Type of data set: biochemical. Particulars: TPI 1239 library, absence of XIAP. The procedure: Caspase activity was assayed by release of 7-amino-4-trifluoromethyl-coumarin (AFC) from Ac-DEVD-AFC synthetic peptides using a Molecular Devices Spectromax 340 (see Zhou et al., J. Biol. Chem. 272:7797-7800 (1997)). […] The ratio of Vmax for hydrolysis of Ac-DEVD-AFC in the presence and absence of the candidate mixture was calculated and used to identify those that contain an agent that derepresses an IAP-inhibited caspase.
Screening of each mixture from the DCR390, TPI 1239 or TPI 1328 library, respectively, using the above described assay was carried out as follows. Each mixture was aliquoted in a 25 microliter volume and in duplicate to a well of a 96 well microtiter plate. […] Fluorescence of liberated AFC was immediately detected from each well for 30 minutes at 30 second intervals. The Vmax for hydrolysis of AC-DEVD-AFC from each well was measured using the softmax software package.
Results of the screen for the DCR390 library are shown in Table I. Sets of mixtures having the same position fixed with different respective amino acids are arranged in 6 sections identified with the position number. […] The mixtures in each section are arranged in descending order according to apparent velocity in the second column.

A short description of data set [12]: Jurkat leukemia cell death, Annexin V/propidium iodide flow cytometry. Type of data set: cell-based. Particulars: human, 20 hours, read-out: % nonviable cells. The procedure: as §2, §3
Data set [13] has as its target BIR3RING (XIAP fragment) (human) (UniProt P98170). Kind of data set: fluorescence polarization; 20 nM rhodamine-SMAC, BIR3RING titrated. (Polarisation of emitted light reports the rotation of a fluorescent probe.)
The target of data set [14] is GST-BIR2 (glutathione-S-transferase-BIR2 fusion protein of XIAP) (human) (UniProt P98170). Kind of data set: fluorescence polarization; 20 nM rhodamine-SMAC, GST-BIR2 0 to 495 nM.
Chain of GST-BIR2 (glutathione-S-transferase-BIR2 fusion protein of XIAP) (human) (P98170 124-240): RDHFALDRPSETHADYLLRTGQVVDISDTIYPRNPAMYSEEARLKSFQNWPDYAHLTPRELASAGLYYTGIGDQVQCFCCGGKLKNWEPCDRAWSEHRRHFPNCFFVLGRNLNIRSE
For data set [15], the target named is GST-XIAP (human) (UniProt P98170). In words: cell-based or functional assay.
Chain of GST-XIAP (human) (P98170 whole entry): as the sequence (P98170 whole entry) above

T1 sequence (P98170 whole entry): as above
Chain of BIR3RING (XIAP fragment) (human) (P98170 243-497 limits assumed): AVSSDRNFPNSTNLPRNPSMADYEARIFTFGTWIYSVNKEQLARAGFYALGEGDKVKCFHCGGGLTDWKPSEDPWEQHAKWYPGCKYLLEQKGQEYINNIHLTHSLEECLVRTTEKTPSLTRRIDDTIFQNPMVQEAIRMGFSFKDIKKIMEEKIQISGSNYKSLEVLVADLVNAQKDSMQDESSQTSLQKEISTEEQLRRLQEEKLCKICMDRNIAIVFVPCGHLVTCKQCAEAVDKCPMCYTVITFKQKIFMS

Consider `CCCC[C@@H](CN(C(=O)Nc1ccccc1)[C@@H](CNC(=O)Nc1ccccc1)CC1CCCCC1)N(CCc1ccc(O)cc1)C(=O)Nc1ccccc1` [TPI 1396-28], for which the apoptosis induction result in data set [1] and in data set [4] was “did not induce apoptosis” each time. The “average (mean) LD50 for the 60 cell lines” value in [2] is above 70 µM. The “caspase activation in whole cells” value in data set [3] is given as “did not induce caspase activation”. In addition, in data set [5] (XIAP derepression assay), the “Activity* (relative caspase-3 activity: Vmax in the presence of compound / Vmax of controls having caspase-3 and XIAP)” value is given as 1.3. Besides, the “activity in the caspase derepression assay using full length XIAP” value in data set [5] (in words) was “inactive analog”. Further, the cytotoxicity at 1 µM in [6] (1 μM) stood at 13%. Further, the cytotoxicity at 10 µM in data set [6] (10 μM) is 13%. Further, in data set [6] (25 μM), the cytotoxicity at 25 µM amounted to 14%. Also, the cytotoxicity at 50 µM in [6] (50 μM) turned out to be 13%. Also, the 50% effective concentration (EC50) – broadly, the concentration that produces a half-maximal response – in [7] is above 134000 nM.
Consider `COc1cc([C@@H]2c3cc4c(cc3[C@@H](O[C@@H]3O[C@@H]5CO[C@@H](C)O[C@H]5[C@H](O)[C@H]3O)[C@H]3COC(=O)[C@H]23)OCO4)cc(OC)c1O` [VP-16, etoposide, reference compound], for which the “average (mean) LD50 for the 60 cell lines” value in [2] came out at 200 ± 2.5 µM. In addition, the “cell viability, compound alone” value in [8] was “essentially no effect”.
In the case of `COc1cccc2c1C(=O)c1c(O)c3c(c(O)c1C2=O)C[C@@](O)(C(C)=O)C[C@@H]3O[C@H]1C[C@H](N)[C@H](O)[C@H](C)O1` [daunorubicin], the “selectivity for transformed cells” value in data set [9] was “do not display selectivity for transformed cells”.
Consider “(D-Trp)-(D-Trp)-(L-Trp)-(D-Nal) ([dW][dW]W[d2Nal]) [TPI 1332-24]”, for which the IC50 (usually the concentration at which inhibition is half-maximal) in data set [10] was found to be 5000 ± 4800 nM.
Regarding “H-AVPIAQK-NH2 [SMAC, H-Ala-Val-Pro-Ile-Ala-Gln-Lys-NH2, reference compound]”, the “Vmax(mix + casp3) / Vmax(casp3)” value in [11] is on record as 0.8 ± 0.0. The “Vmax(mix + casp3 + XIAP) / Vmax(casp3 + XIAP)” value in data set [5] (TPI 1239 library) is given as 3.8 ± 1.7. The cytotoxicity at 20 hours, 5 µM in data set [12] (5 μM) came out at 12%. Further, the cytotoxicity at 20 hours, 25 µM in data set [12] (25 μM) worked out at 16%. Moreover, in data set [12] (50 μM), the cytotoxicity at 20 hours, 50 µM was around 16%. Besides, the cytotoxicity at 20 hours, 100 µM in data set [12] (100 μM) was found to be 15%.
For “rhodamine labeled SMAC (rhodamine-SMAC) (peptide)”, the Kd (in general, the equilibrium constant for the complex coming apart) is 80 nM in data set [13] and 100 nM in [14].

B1: SMAC peptide (H-Ala-Val-Pro-Ile-Ala-Gln-Lys-NH2) (peptide)
chain: H-AVPIAQK-NH2
As for B1, in [15], the Vmax(mix + casp3 + XIAP)/Vmax(casp3 + XIAP) worked out at 3.8.
